Reference: patent US11066368B2, “Process for the preparation and particle size reduction of pirfenidone” (Laurus Labs Limited, priority 2016, dated 2021)

Experiments:
[1] = Particle size distribution after wet milling in colloid mill (IKA MK 2000/05); type: physicochemical; details: water
Protocol: (§1) As used herein, the term “particle size distribution” is expressed in terms of D90, D50 and D10, which corresponds to the diameter of 90 percent by volume of the particles, 50 percent by volume of the particles and 10 percent by volume of the particles are present, respectively.
(§2) The particle size distribution of pirfenidone is measured utilizing: Instrument model: Malvern; Mastersizer 3000; particle refraction index of sample: 1.700; Absorption: 0.01 and Analysis model: general purpose, normal sensitivity, non-spherical particles.
Pirfenidone (Particle size distribution: D10: 1330 μm; D50: 1950 μm and D90: 2840 μm) and Water (3 vol) were charged into IKA colloid mill at 25° C. to 35° C. and circulated the reaction mass at 25° C. to 35° C. till required particle size was obtained. Particle size distribution of the sample with different time interval was monitored by collecting the sample from reaction mass. After achieving the required particle size, stirred the reaction mixture for 30-60 min at 25° C. to 35° C. Further, the reaction mixture temperature was allowed to cool to 0° C. to 5° C. and stirred for 2-3 hrs at same temperature. Filter the solid and washed with the wet cake with chilled water (0.5 vol), dried the solid in an oven under vacuum at 60° C. for 4-6 hours.
The following examples were performed using the above described process with different circulation time and different rpm and obtained results are tabulated as below: […]

[2] = Particle size distribution after ultra sonication by sonoprocessor (RTUL 10SP-20-3000-SD); type: physicochemical; details: ultra sonication in water
Protocol: as §1, §2
Water (300 mL) and Pirfenidone (200 gr; Particle size distribution: D10: 1330 μm; D50: 1950 μm and D90: 2840 μm) were charged into reaction vessel at 25° C. to 35° C. and was placed Sonoprocessor into the reaction mass till required particle size was obtained at 25° C. to 35° C. Particle size distribution of the sample with different time interval was monitored by collecting the sample from reaction mass. After achieving the required particle size, stirred the reaction mixture for 30-60 min at 25° C. to 35° C. Further, the reaction mixture temperature was allowed to cool to 0° C. to 5° C. and stirred for 2-3 hrs at same temperature. Filter the solid and washed the wet cake with chilled water (100 mL), dried the solid in an oven under vacuum at 60° C. for 4-6 hours.
The following examples were performed using the above described process with different rpm and time; the obtained results are tabulated below: […]

[3] = 3000 rpm, circulation time 60 mim
[4] = 3000 rpm, circulation time 120 mim
[5] = 3000 rpm, circulation time 30 min
[6] = 5000 rpm, circulation time 5 min
[7] = 5000 rpm, circulation time 60 min
[8] = 6000 rpm, circulation time 45 min
[9] = 6000 rpm, circulation time 1 hour
[10] = 6000 rpm, circulation time 2 hours, listed as 1A, 20 kg pirfenidone input
[11] = 6000 rpm, circulation time 2 hours, listed as 1B, 200 kg pirfenidone input
[12] = 6000 rpm, circulation time 3 hours, listed as 1A, 20 kg pirfenidone input
[13] = 6000 rpm, circulation time 3 hours, listed as 1B, 200 kg pirfenidone input
[14] = 6000 rpm, circulation time 4 hours, listed as 1A, 20 kg pirfenidone input
[15] = 6000 rpm, circulation time 4 hours, listed as 1B, 200 kg pirfenidone input
[16] = 6000 rpm, circulation time 5 hours, listed as 1A, 20 kg pirfenidone input
[17] = 6000 rpm, circulation time 5 hours, listed as 1B, 200 kg pirfenidone input
[18] = 6000 rpm, circulation time 6 hours, listed as 1A, 20 kg pirfenidone input
[19] = 6000 rpm, circulation time 6 hours, listed as 1B, 200 kg pirfenidone input
[20] = 6000 rpm, circulation time 7 hours
[21] = 6000 rpm, circulation time 8 hours, listed as 1B, 200 kg pirfenidone input
[22] = 6000 rpm, circulation time 8 hours, listed as 1C, 80 kg pirfenidone input
[23] = 6000 rpm, circulation time 9 hours
[24] = 6000 rpm, circulation time 10 hours, listed as 1B, 200 kg pirfenidone input
[25] = 6000 rpm, circulation time 10 hours, listed as 1C, 80 kg pirfenidone input
[26] = 6000 rpm, circulation time 12 hours, listed as 1B, 200 kg pirfenidone input
[27] = 6000 rpm, circulation time 12 hours, listed as 1C, 80 kg pirfenidone input
[28] = 6000 rpm, circulation time 14 hours
[29] = 6000 rpm, circulation time 16 hours
[30] = 6000 rpm, circulation time 19 hours
[31] = 8000 rpm, circulation time 5 min

Cc1ccc(=O)n(-c2ccccc2)c1 [Pirfenidone, 5-methyl-1-phenyl-2-1(H)-pyridone]
PSD D10 [1, 3]: 12 μm | PSD D50 [1, 3]: 33 μm | PSD D90 [1, 3]: 123 μm | PSD D10 [1, 4]: 13 μm | PSD D50 [1, 4]: 33 μm | PSD D90 [1, 4]: 82 μm | PSD D10 [1, 5]: 28 μm | PSD D50 [1, 5]: 87 μm | PSD D90 [1, 5]: 185 μm | PSD D10 [1, 6]: 11 μm | PSD D50 [1, 6]: 40 μm | PSD D90 [1, 6]: 99 μm | PSD D10 [1, 7]: 11 μm | PSD D50 [1, 7]: 36 μm | PSD D90 [1, 7]: 89 μm | PSD D10 [1, 8]: 41 μm | PSD D50 [1, 8]: 48 μm | PSD D90 [1, 8]: 285 μm | PSD D10 [1, 9]: 30 μm | PSD D50 [1, 9]: 105 μm | PSD D90 [1, 9]: 206 μm | PSD D10 [1, 10]: 28 μm | PSD D50 [1, 10]: 72 μm | PSD D90 [1, 10]: 165 μm | PSD D10 [1, 11]: 34 μm | PSD D50 [1, 11]: 124 μm | PSD D90 [1, 11]: 257 μm | PSD D10 [1, 12]: 26 μm | PSD D50 [1, 12]: 61 μm | PSD D90 [1, 12]: 143 μm | PSD D10 [1, 13]: 34 μm | PSD D50 [1, 13]: 116 μm | PSD D90 [1, 13]: 236 μm | PSD D10 [1, 14]: 23 μm | PSD D50 [1, 14]: 54 μm | PSD D90 [1, 14]: 129 μm | PSD D10 [1, 15]: 32 μm | PSD D50 [1, 15]: 106 μm | PSD D90 [1, 15]: 222 μm | PSD D10 [1, 16]: 22 μm | PSD D50 [1, 16]: 53 μm | PSD D90 [1, 16]: 117 μm | PSD D10 [1, 17]: 33 μm | PSD D50 [1, 17]: 106 μm | PSD D90 [1, 17]: 217 μm | PSD D10 [1, 18]: 21 μm | PSD D50 [1, 18]: 49 μm | PSD D90 [1, 18]: 107 μm | PSD D10 [1, 19]: 29 μm | PSD D50 [1, 19]: 101 μm | PSD D90 [1, 19]: 200 μm | PSD D10 [1, 20]: 31 μm | PSD D50 [1, 20]: 94 μm | PSD D90 [1, 20]: 200 μm | PSD D10 [1, 21]: 28 μm | PSD D50 [1, 21]: 84 μm | PSD D90 [1, 21]: 187 μm | PSD D10 [1, 22]: 21 μm | PSD D50 [1, 22]: 57 μm | PSD D90 [1, 22]: 132 μm | PSD D10 [1, 23]: 28 μm | PSD D50 [1, 23]: 80 μm | PSD D90 [1, 23]: 180 μm | PSD D10 [1, 24]: 27 μm | PSD D50 [1, 24]: 69 μm | PSD D90 [1, 24]: 155 μm | PSD D10 [1, 25]: 22 μm | PSD D50 [1, 25]: 55 μm | PSD D90 [1, 25]: 122 μm | PSD D10 [1, 26]: 25 μm | PSD D50 [1, 26]: 61 μm | PSD D90 [1, 26]: 150 μm | PSD D10 [1, 27]: 22 μm | PSD D50 [1, 27]: 54 μm | PSD D90 [1, 27]: 121 μm | PSD D10 [1, 28]: 21 μm | PSD D50 [1, 28]: 47 μm | PSD D90 [1, 28]: 98 μm | PSD D10 [1, 29]: 21 μm | PSD D50 [1, 29]: 47 μm | PSD D90 [1, 29]: 96 μm | PSD D10 [1, 30]: 22 μm | PSD D50 [1, 30]: 46 μm | PSD D90 [1, 30]: 93 μm | PSD D10 [1, 31]: 9 μm | PSD D50 [1, 31]: 35 μm | PSD D90 [1, 31]: 85 μm | PSD D10 ([2]; sonication time 30 min): 44 μm | PSD D50 ([2]; sonication time 30 min): 145 μm | PSD D90 ([2]; sonication time 30 min): 245 μm | PSD D10 ([2]; sonication time 60 min): 26 μm | PSD D50 ([2]; sonication time 60 min): 101 μm | PSD D90 ([2]; sonication time 60 min): 189 μm | PSD D10 ([2]; sonication time 120 min): 19 μm | PSD D50 ([2]; sonication time 120 min): 68 μm | PSD D90 ([2]; sonication time 120 min): 150 μm | PSD D10 ([2]; sonication time 180 min): 13 μm | PSD D50 ([2]; sonication time 180 min): 48 μm | PSD D90 ([2]; sonication time 180 min): 109 μm
